pIC50: −log10 of the molar value. Calls of active or inactive are those of the source. The rule behind the calls is not given here. Numbered stars: 1 amine (or outer) side, 2 acyl side, 3 side chain; on linkers, the order of the positions; unused ones are H or OH. Square brackets hold non-standard residues; d marks the D form. Peptide text beside a SMILES is read from it. * marks the point of attachment. Benzenesulfonyl(4-Cl,3-CF3) = O=S(=O)(c1ccc(Cl)c(C(F)(F)F)c1)*; γGlu = O=C(O)[C@H](CCC(=O)[*:2])N[*:1]; 4Pal = N[C@@H](Cc1ccncc1)C(=O)O; Tle = CC(C)(C)[C@H](N)C(=O)O; β3hP = O=C(O)C[C@@H]1CCCN1
Experiments:
Homo sapiens [1] = species on record: Homo sapiens; experiment: Selectivity ratio of IC50 for inhibition of recombinant human MMP2 to IC50 for inhibition of recombinant human MMP7
[2] = Metabolic stability in rat liver microsome assessed as intrinsic clearance at 1 uM incubated for 15 mins by LC-MS analysis; type: ADME; conditions: liver microsomes, read-out: CLH (converted)
Matrilysin [3] = target: T1, Matrilysin (Mus musculus, UniProt Q10738); experiment: Inhibition of mouse MMP7 using MOCAc-Pro-Leu-Gly-Leu-A2pr-(Dnp)-Ala-Arg-NH2 as substrate preincubated with compound for 15 mins followed by substrate addition and measured after 2 hrs by fluorescence based analysis
T1 sequence (Q10738 whole entry): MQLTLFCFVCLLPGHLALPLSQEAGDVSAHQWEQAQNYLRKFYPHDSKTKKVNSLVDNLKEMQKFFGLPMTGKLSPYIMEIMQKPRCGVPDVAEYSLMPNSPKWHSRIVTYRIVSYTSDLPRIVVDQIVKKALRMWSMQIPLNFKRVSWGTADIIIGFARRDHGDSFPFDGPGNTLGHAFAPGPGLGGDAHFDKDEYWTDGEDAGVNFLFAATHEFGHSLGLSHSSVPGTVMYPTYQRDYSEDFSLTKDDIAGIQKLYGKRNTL

Mus musculus [4] = experiment: Antifibrotic activity against unilateral ureteric obstruction induced C57BL/6J mouse model of renal fibrosis assessed as reduction in renal collagen at 10 to 100 mg/kg/day, SC preadministered with compound for 7 days followed by UUO surgery and measured after 7 days; type: functional, organism-based; conditions: dose 10-100 mg/kg/day, time 14.0 day
[5] = Metabolic stability in human serum assessed as parent compound remaining at 5 uM incubated for 4 hrs by LC-MS/MS analysis; type: ADME, cell-free; conditions: read-out: Stability
[6] = Metabolic stability in human liver microsome assessed as intrinsic clearance at 1 uM incubated for 15 mins by LC-MS analysis; type: ADME; conditions: liver microsomes, read-out: CLH (converted)
Homo sapiens [7] = species on record: Homo sapiens; experiment: Selectivity ratio of IC50 for inhibition of recombinant human MMP3 to IC50 for inhibition of recombinant human MMP7
Homo sapiens [8] = species on record: Homo sapiens; experiment: Selectivity ratio of IC50 for inhibition of recombinant human MMP1 to IC50 for inhibition of recombinant human MMP7
[9] = Lipophilicity, logD of compound at pH 7.4 by HPLC-UV analysis; type: physicochemical; conditions: buffer
[10] = Volume of distribution at steady state in Sprague-Dawley rat at 1 mg/kg, iv administered as single dose by LC-MS/MS analysis; type: ADME, organism-based; conditions: in vivo, read-out: Vdss
Matrilysin [11] = target: T2, Matrilysin (Homo sapiens, UniProt P09237); experiment: Inhibition of recombinant human MMP7 using MOCAc-Pro-Leu-Gly-Leu-A2pr-(Dnp)-Ala-Arg-NH2 as substrate preincubated with compound for 15 mins followed by substrate addition and measured after 2 hrs by fluorescence based analysis
T2 sequence (P09237 whole entry): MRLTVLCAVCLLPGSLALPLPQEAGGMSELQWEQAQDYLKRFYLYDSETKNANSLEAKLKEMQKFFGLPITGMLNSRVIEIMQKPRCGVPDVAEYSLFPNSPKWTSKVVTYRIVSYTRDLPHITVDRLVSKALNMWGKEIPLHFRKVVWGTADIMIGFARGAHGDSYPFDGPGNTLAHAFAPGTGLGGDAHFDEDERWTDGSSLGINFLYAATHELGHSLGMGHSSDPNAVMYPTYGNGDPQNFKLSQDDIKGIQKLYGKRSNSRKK

[12] = Metabolic stability in rat hepatocytes assessed as intrinsic clearance at 1 uM incubated for 1 to 4 hrs by LC-MS/MS analysis; type: ADME, cell-based, Hepatocyte; conditions: time 1-4 hrs, read-out: CLH (converted)
Homo sapiens [13] = species on record: Homo sapiens; experiment: Selectivity ratio of IC50 for inhibition of recombinant human MMP8 to IC50 for inhibition of recombinant human MMP7
Homo sapiens [14] = species on record: Homo sapiens; experiment: Selectivity ratio of IC50 for inhibition of recombinant human MMP12 to IC50 for inhibition of recombinant human MMP7
[15] = Protein binding in mouse serum incubated for 4 hrs by equilibrium dialysis based LC-MS/MS analysis; type: ADME, cell-free; conditions: read-out: PB (converted)
[16] = target: 72 kDa type IV collagenase (Homo sapiens, UniProt P08253); experiment: Inhibition of recombinant human MMP2 using MOCAc-Pro-Leu-Gly-Leu-A2pr-(Dnp)-Ala-Arg-NH2 as substrate preincubated with compound for 15 mins followed by substrate addition and measured after 1 hrs by fluorescence based analysis
72 kDa type IV collagenase, sequence (P08253 whole entry): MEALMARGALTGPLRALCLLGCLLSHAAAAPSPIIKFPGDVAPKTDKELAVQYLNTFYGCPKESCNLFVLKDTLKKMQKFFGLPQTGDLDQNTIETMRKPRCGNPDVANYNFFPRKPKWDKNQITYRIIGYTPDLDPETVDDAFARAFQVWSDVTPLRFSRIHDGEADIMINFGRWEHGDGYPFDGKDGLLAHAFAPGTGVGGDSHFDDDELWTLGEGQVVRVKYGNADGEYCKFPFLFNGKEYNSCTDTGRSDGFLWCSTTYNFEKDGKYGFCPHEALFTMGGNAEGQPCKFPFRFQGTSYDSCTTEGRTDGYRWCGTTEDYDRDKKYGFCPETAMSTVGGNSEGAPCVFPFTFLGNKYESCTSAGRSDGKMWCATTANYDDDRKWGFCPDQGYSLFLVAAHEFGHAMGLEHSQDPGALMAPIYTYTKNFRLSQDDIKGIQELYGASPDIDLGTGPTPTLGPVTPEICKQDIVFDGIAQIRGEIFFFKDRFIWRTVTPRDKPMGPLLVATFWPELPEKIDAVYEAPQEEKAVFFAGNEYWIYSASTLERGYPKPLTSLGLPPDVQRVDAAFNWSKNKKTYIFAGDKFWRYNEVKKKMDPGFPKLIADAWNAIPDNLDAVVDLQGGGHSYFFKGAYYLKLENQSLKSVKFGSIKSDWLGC

[17] = target: Matrix metalloproteinase-14 (Homo sapiens, UniProt P50281); experiment: Inhibition of recombinant human MMP14 using MOCAc-Lys-Pro-Leu-Gly-Leu-A2pr(Dnp)-Ala-Arg-NH2 as substrate preincubated with compound for 15 mins followed by substrate addition and measured after 1 hrs by fluorescence based analysis
[18] = Protein binding in human serum incubated for 4 hrs by equilibrium dialysis based LC-MS/MS analysis; type: ADME, cell-free; conditions: read-out: PB (converted)
Homo sapiens [19] = species on record: Homo sapiens; experiment: Selectivity ratio of IC50 for inhibition of recombinant human MMP14 to IC50 for inhibition of recombinant human MMP7
[20] = target: Macrophage metalloelastase (Homo sapiens, UniProt P39900); experiment: Inhibition of recombinant human MMP12 using MOCAc-Pro-Leu-Gly-Leu-A2pr-(Dnp)-Ala-Arg-NH2 as substrate preincubated with compound for 15 mins followed by substrate addition and measured after 1 hrs by fluorescence based analysis
Macrophage metalloelastase, sequence (P39900 whole entry): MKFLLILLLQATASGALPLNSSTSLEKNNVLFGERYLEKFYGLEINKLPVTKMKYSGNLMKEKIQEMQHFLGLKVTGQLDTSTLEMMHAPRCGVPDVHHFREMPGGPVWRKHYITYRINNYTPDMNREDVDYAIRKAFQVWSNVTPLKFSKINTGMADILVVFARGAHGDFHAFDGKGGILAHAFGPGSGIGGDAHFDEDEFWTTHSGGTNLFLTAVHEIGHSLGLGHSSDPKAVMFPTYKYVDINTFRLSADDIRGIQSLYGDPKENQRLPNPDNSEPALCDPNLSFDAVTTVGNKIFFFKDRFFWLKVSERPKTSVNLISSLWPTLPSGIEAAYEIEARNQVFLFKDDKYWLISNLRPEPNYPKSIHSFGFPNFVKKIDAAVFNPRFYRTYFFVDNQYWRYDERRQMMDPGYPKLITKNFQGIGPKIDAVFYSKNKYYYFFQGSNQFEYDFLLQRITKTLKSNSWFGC

Collagenase 3 = Collagenase 3 (Homo sapiens, UniProt P45452); experiment: Inhibition of recombinant human MMP13 using MOCAc-Pro-Leu-Gly-Leu-A2pr-(Dnp)-Ala-Arg-NH2 as substrate preincubated with compound for 15 mins followed by substrate addition and measured after 1 hrs by fluorescence based analysis
[21] = target: Matrix metalloproteinase-9 (Homo sapiens, UniProt P14780); experiment: Inhibition of recombinant human MMP9 using MOCAc-Pro-Leu-Gly-Leu-A2pr-(Dnp)-Ala-Arg-NH2 as substrate preincubated with compound for 15 mins followed by substrate addition and measured after 1 hrs by fluorescence based analysis
Matrix metalloproteinase-9, sequence (P14780 whole entry): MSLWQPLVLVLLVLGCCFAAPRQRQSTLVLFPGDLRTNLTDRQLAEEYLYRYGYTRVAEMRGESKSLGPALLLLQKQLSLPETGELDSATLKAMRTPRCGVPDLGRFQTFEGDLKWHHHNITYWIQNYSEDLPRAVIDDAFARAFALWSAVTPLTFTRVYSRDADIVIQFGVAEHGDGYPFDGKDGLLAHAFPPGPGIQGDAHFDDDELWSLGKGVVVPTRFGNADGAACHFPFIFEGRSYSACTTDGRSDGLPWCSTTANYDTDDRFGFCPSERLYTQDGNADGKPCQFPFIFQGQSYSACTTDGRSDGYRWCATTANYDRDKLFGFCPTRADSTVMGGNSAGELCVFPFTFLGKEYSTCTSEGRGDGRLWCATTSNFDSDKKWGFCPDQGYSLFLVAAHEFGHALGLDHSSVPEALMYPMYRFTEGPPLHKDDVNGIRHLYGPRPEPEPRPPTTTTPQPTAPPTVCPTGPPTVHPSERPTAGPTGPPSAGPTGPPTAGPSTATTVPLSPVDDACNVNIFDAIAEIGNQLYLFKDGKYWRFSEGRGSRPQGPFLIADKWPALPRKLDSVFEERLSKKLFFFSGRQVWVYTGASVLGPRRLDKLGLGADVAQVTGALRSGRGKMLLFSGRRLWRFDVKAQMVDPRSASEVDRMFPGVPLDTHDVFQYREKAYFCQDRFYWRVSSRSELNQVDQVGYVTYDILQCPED

Stromelysin-1 = Stromelysin-1 (Homo sapiens, UniProt P08254); experiment: Inhibition of recombinant human MMP3 using MOCAc-Arg-Pro-Lys-Pro-Val-Glu-Nva-Trp-Arg-Lys(Dnp)-NH2 as substrate preincubated with compound for 15 mins followed by substrate addition and measured after 1 hrs by fluorescence based analysis
Stromelysin-1, sequence (P08254 whole entry): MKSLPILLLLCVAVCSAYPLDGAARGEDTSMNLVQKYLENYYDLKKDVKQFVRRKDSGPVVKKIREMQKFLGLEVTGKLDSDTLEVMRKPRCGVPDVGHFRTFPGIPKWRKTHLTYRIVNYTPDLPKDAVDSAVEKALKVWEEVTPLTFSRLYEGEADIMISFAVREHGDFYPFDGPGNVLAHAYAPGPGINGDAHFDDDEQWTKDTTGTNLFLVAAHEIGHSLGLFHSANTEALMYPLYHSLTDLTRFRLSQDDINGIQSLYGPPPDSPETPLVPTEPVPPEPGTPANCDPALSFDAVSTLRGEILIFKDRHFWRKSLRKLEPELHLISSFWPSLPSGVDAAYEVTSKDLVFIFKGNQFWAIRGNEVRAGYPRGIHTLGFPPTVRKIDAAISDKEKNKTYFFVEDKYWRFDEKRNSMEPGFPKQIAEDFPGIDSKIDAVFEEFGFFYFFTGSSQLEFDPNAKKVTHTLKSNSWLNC

Homo sapiens [22] = species on record: Homo sapiens; experiment: Selectivity ratio of IC50 for inhibition of recombinant human MMP9 to IC50 for inhibition of recombinant human MMP7
[23] = Total clearance in Sprague-Dawley rat at 1 mg/kg, iv administered as single dose by LC-MS/MS analysis; type: ADME, organism-based; conditions: in vivo
Interstitial collagenase = target: T3, Interstitial collagenase (Homo sapiens, UniProt P03956); experiment: Inhibition of recombinant human MMP1 using MOCAc-Lys-Pro-Leu-Gly-Leu-A2pr(Dnp)-Ala-Arg-NH2 as substrate preincubated with compound for 15 mins followed by substrate addition and measured after 1 hrs by fluorescence based analysis
T3 sequence (P03956 whole entry): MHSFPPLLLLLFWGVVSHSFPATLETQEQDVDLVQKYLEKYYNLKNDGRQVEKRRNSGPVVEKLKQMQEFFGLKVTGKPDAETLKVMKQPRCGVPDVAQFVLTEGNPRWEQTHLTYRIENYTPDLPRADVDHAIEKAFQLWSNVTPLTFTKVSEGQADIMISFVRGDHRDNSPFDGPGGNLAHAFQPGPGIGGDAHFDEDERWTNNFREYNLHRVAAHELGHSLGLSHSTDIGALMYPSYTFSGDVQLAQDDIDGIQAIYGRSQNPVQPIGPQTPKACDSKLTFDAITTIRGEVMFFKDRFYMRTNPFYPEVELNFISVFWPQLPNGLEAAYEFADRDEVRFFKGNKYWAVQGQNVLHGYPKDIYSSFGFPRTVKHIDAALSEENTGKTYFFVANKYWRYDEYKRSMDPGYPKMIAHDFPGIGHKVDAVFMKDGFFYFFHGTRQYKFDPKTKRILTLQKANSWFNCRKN

Neutrophil collagenase = Neutrophil collagenase (Homo sapiens, UniProt P22894); experiment: Inhibition of recombinant human MMP8 using MOCAc-Pro-Leu-Gly-Leu-A2pr-(Dnp)-Ala-Arg-NH2 as substrate preincubated with compound for 15 mins followed by substrate addition and measured after 1 hrs by fluorescence based analysis
Neutrophil collagenase, sequence (P22894 whole entry): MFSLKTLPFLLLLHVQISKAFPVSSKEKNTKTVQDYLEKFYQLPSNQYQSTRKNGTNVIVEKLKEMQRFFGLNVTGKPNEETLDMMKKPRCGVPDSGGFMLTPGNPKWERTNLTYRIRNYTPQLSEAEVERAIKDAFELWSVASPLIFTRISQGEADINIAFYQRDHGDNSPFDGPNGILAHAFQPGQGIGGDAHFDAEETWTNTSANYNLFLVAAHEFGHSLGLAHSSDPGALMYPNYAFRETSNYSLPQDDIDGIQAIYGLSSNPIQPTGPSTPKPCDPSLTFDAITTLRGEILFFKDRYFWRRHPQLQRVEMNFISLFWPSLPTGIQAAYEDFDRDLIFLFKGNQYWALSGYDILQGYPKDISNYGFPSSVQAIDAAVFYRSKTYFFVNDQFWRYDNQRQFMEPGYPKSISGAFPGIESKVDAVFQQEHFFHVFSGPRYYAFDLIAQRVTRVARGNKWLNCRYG

Homo sapiens [24] = species on record: Homo sapiens; experiment: Selectivity ratio of IC50 for inhibition of recombinant human MMP13 to IC50 for inhibition of recombinant human MMP7
Mus musculus [25] = experiment: Antifibrotic activity against unilateral ureteric obstruction induced C57BL/6J mouse model of renal fibrosis assessed as reduction in renal collagen at 0.1 mg/ml preadministered with compound via drinking water for 7 days followed by UUO surgery and measured after 7 days; type: functional, organism-based; conditions: route po, time 14.0 day

Compound	Ratio IC50 (Homo sapiens [1])	Ratio IC50 (Homo sapiens [7])	Ratio IC50 (Homo sapiens [8])	pIC50 (Matrilysin [11])	Ratio IC50 (Homo sapiens [13])	Ratio IC50 (Homo sapiens [14])	pIC50 [16]	pIC50 [17]	Ratio IC50 (Homo sapiens [19])	pIC50 [20]	pIC50 (Collagenase 3)	pIC50 [21]	pIC50 (Stromelysin-1)	Ratio IC50 (Homo sapiens [22])	pIC50 (Interstitial collagenase)	pIC50 (Neutrophil collagenase)	Ratio IC50 (Homo sapiens [24])	also measured
CC(C)(C)[C@H](NC(=O)[C@H](Cc1ccncc1)NC(=O)CNC(=O)CC[C@H](NS(=O)(=O)c1ccc(Cl)c(C(F)(F)F)c1)C(=O)O)C(=O)N1CCC[C@H]1CC(N)=O ({Benzenesulfonyl(4-Cl,3-CF3)-γGlu}-G[4Pal][Tle][β3hP]-NH2)	2700	> 36000	> 36000	8.55	> 36000	460	5.12	6.07	300	5.89	< 4.00	< 4.00	< 4.00	> 36000	< 4.00	< 4.00	> 36000	CLint scaled at 1 µM [2]: 23.6 mL/min/kg; pIC50 (Matrilysin [3]): 7.31; Activity (Mus musculus [4]): Active; remaining at 4 h, 5 µM [5]: 101%; CLint scaled at 1 µM [6]: 13.6 mL/min/kg; logD [9]: 1.04; Vd [10]: 1.09 L/kg; CLint scaled at 1 µM [12]: 11 mL/min/kg; fraction unbound at 4 h [15]: 0.368; fraction unbound at 4 h [18]: 0.266; clearance [23]: 85.5 mL/min/kg
CC(C)C[C@H](NC(=O)CNC(=O)CC[C@H](NS(=O)(=O)c1ccc(Cl)c(C(F)(F)F)c1)C(=O)O)C(=O)N[C@H](C(=O)N1CCC[C@H]1CC(N)=O)C(C)(C)C ({Benzenesulfonyl(4-Cl,3-CF3)-γGlu}-GL[Tle][β3hP]-NH2)	1100	> 13000	12000	8.11	7100	380	5.07	6.62	31	5.54	< 4.00	< 4.00	< 4.00	> 13000	4.04	4.26	> 13000	–
CCCCc1nc(Cl)c(CO)n1Cc1ccc(-c2ccccc2-c2nnn[nH]2)cc1	–	–	–	–	–	–	–	–	–	–	–	–	–	–	–	–	–	Activity (Mus musculus [25]): Active

— ChEMBL document CHEMBL5370641, “Structure-Based Optimization and Biological Evaluation of Potent and Selective MMP-7 Inhibitors for Kidney Fibrosis” (J Med Chem, 2023)
